Test results published in PubChem BioAssay (NCI).
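96-well plates; 48 h exposure; 5 concentrations. Endpoints by linear interpolation between flanking doses. Not reached: highest tested concentration assigned. Definition used: TGI = concentration required for complete inhibition of growth.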

Tests used:
Assay in all cases: DTP human tumour cell line panel, 48 h
HCT-15 colon = tested on: HCT-15 colon
A498 renal = tested on: A498 renal
SK-MEL-5 melanoma = tested on: SK-MEL-5 melanoma
OVCAR-3 ovarian = tested on: OVCAR-3 ovarian
DU-145 prostate = tested on: DU-145 prostate
U251 CNS = tested on: U251 CNS
SW-620 colon = tested on: SW-620 colon
NCI-H226 lung = tested on: NCI-H226 lung
CAKI-1 renal = tested on: CAKI-1 renal
HCC-2998 colon = tested on: HCC-2998 colon
OVCAR-5 ovarian = tested on: OVCAR-5 ovarian
PC-3 prostate = tested on: PC-3 prostate
KM12 colon = tested on: KM12 colon
CCRF-CEM leukemia = tested on: CCRF-CEM leukemia
SN12C renal = tested on: SN12C renal
T-47D breast = tested on: T-47D breast
SF-268 CNS = tested on: SF-268 CNS
HOP-92 NSCLC = tested on: HOP-92 NSCLC
SR leukemia = tested on: SR leukemia
M14 melanoma = tested on: M14 melanoma
RXF 393 renal = tested on: RXF 393 renal
SNB-19 CNS = tested on: SNB-19 CNS
OVCAR-4 ovarian = tested on: OVCAR-4 ovarian
MDA-MB-435 = tested on: MDA-MB-435
UO-31 renal = tested on: UO-31 renal
MCF7 breast = tested on: MCF7 breast
MDA-MB-231 breast = tested on: MDA-MB-231 breast
K-562 leukemia = tested on: K-562 leukemia
HOP-62 NSCLC = tested on: HOP-62 NSCLC
ACHN renal = tested on: ACHN renal
OVCAR-8 ovarian = tested on: OVCAR-8 ovarian
NCI/ADR-RES ovarian = tested on: NCI/ADR-RES ovarian
COLO 205 colon = tested on: COLO 205 colon
MDA-N = tested on: MDA-N
HCT-116 colon = tested on: HCT-116 colon
A549 NSCLC = tested on: A549 NSCLC
NCI-H522 lung = tested on: NCI-H522 lung
MALME-3M melanoma = tested on: MALME-3M melanoma
SF-295 CNS = tested on: SF-295 CNS
SK-OV-3 ovarian = tested on: SK-OV-3 ovarian
LOX IMVI melanoma = tested on: LOX IMVI melanoma
MOLT-4 leukemia = tested on: MOLT-4 leukemia
IGROV1 ovarian = tested on: IGROV1 ovarian
EKVX NSCLC = tested on: EKVX NSCLC
HS 578T breast = tested on: HS 578T breast
SK-MEL-2 melanoma = tested on: SK-MEL-2 melanoma
NCI-H23 lung = tested on: NCI-H23 lung
TK-10 renal = tested on: TK-10 renal
SF-539 CNS = tested on: SF-539 CNS
786-0 renal = tested on: 786-0 renal
HT29 colon = tested on: HT29 colon
BT-549 breast = tested on: BT-549 breast
UACC-257 melanoma = tested on: UACC-257 melanoma
HL-60(TB) leukemia = tested on: HL-60(TB) leukemia
SK-MEL-28 melanoma = tested on: SK-MEL-28 melanoma
NCI-H460 lung = tested on: NCI-H460 lung
SNB-75 CNS = tested on: SNB-75 CNS
UACC-62 melanoma = tested on: UACC-62 melanoma
RPMI-8226 leukemia = tested on: RPMI-8226 leukemia

`FC(F)(F)c1cccc(-c2nc3nc(Cl)c(Cl)nc3[nH]2)c1` gave a TGI (HCT-15 colon) of over 38.6 µM, a TGI (A498 renal) of 6.12 µM and a TGI (SK-MEL-5 melanoma) of 3.16 µM. The TGI (OVCAR-3 ovarian) was 14.9 µM, the TGI (DU-145 prostate) was over 100 µM and the TGI (U251 CNS) was 13.6 µM. It also gave a TGI (SW-620 colon) of over 42.3 µM, a TGI (NCI-H226 lung) of 13.5 µM and a TGI (CAKI-1 renal) of 11 µM. For the same molecule, the TGI (HCC-2998 colon) was 8.04 µM, the TGI (OVCAR-5 ovarian) was 16 µM and the TGI (PC-3 prostate) was 9.37 µM. It also gave a TGI (KM12 colon) of 11 µM, a TGI (CCRF-CEM leukemia) of 7.99 µM and a TGI (SN12C renal) of over 35.9 µM. The TGI (T-47D breast) was 12.9 µM, the TGI (SF-268 CNS) was over 65.8 µM and the TGI (HOP-92 NSCLC) was 9.79 µM. The TGI (SR leukemia) was 12.2 µM, the TGI (M14 melanoma) was 30.8 µM and the TGI (RXF 393 renal) was 27 µM. It also gave a TGI (SNB-19 CNS) of over 59.2 µM, a TGI (OVCAR-4 ovarian) of over 41.6 µM and a TGI (MDA-MB-435) of 13 µM. It also gave a TGI (UO-31 renal) of 3.88 µM, a TGI (MCF7 breast) of 8.95 µM and a TGI (MDA-MB-231 breast) of 8.39 µM. It also gave a TGI (K-562 leukemia) of 17 µM, a TGI (HOP-62 NSCLC) of 23.5 µM and a TGI (ACHN renal) of over 28.2 µM. The TGI (OVCAR-8 ovarian) was over 100 µM, the TGI (NCI/ADR-RES ovarian) was over 100 µM and the TGI (COLO 205 colon) was 2.98 µM. It also gave a TGI (MDA-N) of 32 µM, a TGI (HCT-116 colon) of 12.1 µM and a TGI (A549 NSCLC) of over 40.3 µM. It also gave a TGI (NCI-H522 lung) of 4.11 µM, a TGI (MALME-3M melanoma) of 12.5 µM and a TGI (SF-295 CNS) of over 100 µM. For the same molecule, the TGI (SK-OV-3 ovarian) was over 90.1 µM, the TGI (LOX IMVI melanoma) was 13.1 µM and the TGI (MOLT-4 leukemia) was 10.4 µM. For the same molecule, the TGI (IGROV1 ovarian) was over 100 µM, the TGI (EKVX NSCLC) was 23.2 µM and the TGI (HS 578T breast) was 17.8 µM. The TGI (SK-MEL-2 melanoma) was 6.02 µM, the TGI (NCI-H23 lung) was 14.7 µM and the TGI (TK-10 renal) was over 76.1 µM. For the same molecule, the TGI (SF-539 CNS) was over 27.7 µM, the TGI (786-0 renal) was over 65.7 µM and the TGI (HT29 colon) was 9.2 µM. For the same molecule, the TGI (BT-549 breast) was 51.8 µM, the TGI (UACC-257 melanoma) was over 30.9 µM and the TGI (HL-60(TB) leukemia) was 4.7 µM. For the same molecule, the TGI (SK-MEL-28 melanoma) was 27.3 µM, the TGI (NCI-H460 lung) was over 30.3 µM and the TGI (SNB-75 CNS) was 7.06 µM. The TGI (UACC-62 melanoma) was 24.5 µM and the TGI (RPMI-8226 leukemia) was 3.5 µM.

Work on `Fc1ccc(C(OCCN2CCN(CCCc3ccccc3)CC2)c2ccc(F)cc2)cc1` yielded a TGI (HCT-15 colon) of 13.4 µM, a TGI (A498 renal) of 19.7 µM and a TGI (SK-MEL-5 melanoma) of 10.1 µM. It also gave a TGI (OVCAR-3 ovarian) of 15.9 µM, a TGI (DU-145 prostate) of 19.5 µM and a TGI (U251 CNS) of 14.3 µM. The TGI (SW-620 colon) was over 50.6 µM, the TGI (NCI-H226 lung) was 13.9 µM and the TGI (CAKI-1 renal) was 13.5 µM. It also gave a TGI (HCC-2998 colon) of 11.7 µM, a TGI (OVCAR-5 ovarian) of 15.7 µM and a TGI (PC-3 prostate) of 12 µM. For the same molecule, the TGI (KM12 colon) was 17.1 µM, the TGI (CCRF-CEM leukemia) was over 100 µM and the TGI (SN12C renal) was 15.8 µM. It also gave a TGI (T-47D breast) of 19.3 µM, a TGI (SF-268 CNS) of 14.6 µM and a TGI (HOP-92 NSCLC) of 11.6 µM. The TGI (SR leukemia) was 10 µM, the TGI (M14 melanoma) was 11.3 µM and the TGI (RXF 393 renal) was 11.3 µM. It also gave a TGI (SNB-19 CNS) of 14.5 µM, a TGI (OVCAR-4 ovarian) of 15.8 µM and a TGI (MDA-MB-435) of 14 µM. It also gave a TGI (UO-31 renal) of 12 µM, a TGI (MCF7 breast) of 18.9 µM and a TGI (MDA-MB-231 breast) of 11.3 µM. It also gave a TGI (K-562 leukemia) of 16.1 µM, a TGI (HOP-62 NSCLC) of 17.7 µM and a TGI (ACHN renal) of 17.4 µM. The TGI (OVCAR-8 ovarian) was 13 µM, the TGI (NCI/ADR-RES ovarian) was 12.6 µM and the TGI (COLO 205 colon) was 10.1 µM. It also gave a TGI (MDA-N) of 14.3 µM, a TGI (A549 NSCLC) of 14 µM and a TGI (NCI-H522 lung) of 12.4 µM. It also gave a TGI (MALME-3M melanoma) of 17 µM, a TGI (SF-295 CNS) of 15.2 µM and a TGI (SK-OV-3 ovarian) of 18.9 µM. For the same molecule, the TGI (LOX IMVI melanoma) was 15.6 µM, the TGI (MOLT-4 leukemia) was 19 µM and the TGI (IGROV1 ovarian) was 22.2 µM. It also gave a TGI (EKVX NSCLC) of 15.2 µM, a TGI (HS 578T breast) of 10.1 µM and a TGI (SK-MEL-2 melanoma) of 12.2 µM. It also gave a TGI (NCI-H23 lung) of 15.3 µM, a TGI (TK-10 renal) of 18.7 µM and a TGI (HT29 colon) of 12.3 µM. For the same molecule, the TGI (BT-549 breast) was 19.3 µM, the TGI (UACC-257 melanoma) was 8.62 µM and the TGI (HL-60(TB) leukemia) was 16 µM. It also gave a TGI (SK-MEL-28 melanoma) of 23.6 µM, a TGI (NCI-H460 lung) of 15.3 µM and a TGI (SNB-75 CNS) of 16.4 µM. The TGI (UACC-62 melanoma) was 21.4 µM and the TGI (RPMI-8226 leukemia) was 8.63 µM.
